Drawing on US20250154127A1, “BICYCLIC HETEROARYL COMPOUNDS AND USES THEREOF” (ETERN BIOPHARMA (SHANGHAI) CO., LTD., priority 2022, published 2025), this text covers IC50 for 24 compounds.

The target of assay [1] is TEAD1(210-426) binding to YAP(50-100) (Homo sapiens, UniProt P28347). In words: TR-FRET Assay for TEAD1(210-426) Binding to YAP(50-100). The note with it: His-TEAD 10 nM, YAP-Biotin peptide 50 nM. As for the experimental part: Compounds were performed 3 fold serial dilution, 12 data points, added to 384 well white plate. The final DMSO concentration is 1%, duplicate for each concentration. Then His-TEAD protein was added to a final concentration of 10 nM, and allowed to preincubate for 30 minutes at room temperature. Assay buffer was added as background control.
TEAD1(210-426) binding to YAP(50-100), sequence (P28347 209-426): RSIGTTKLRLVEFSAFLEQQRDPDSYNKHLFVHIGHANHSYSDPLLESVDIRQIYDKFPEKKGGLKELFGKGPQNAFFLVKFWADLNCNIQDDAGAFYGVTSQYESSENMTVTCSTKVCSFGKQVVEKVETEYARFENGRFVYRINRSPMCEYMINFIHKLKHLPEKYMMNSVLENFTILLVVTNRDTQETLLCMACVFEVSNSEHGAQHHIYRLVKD
YAP-Biotin peptide was added to a final concentration of 50 nM, mixed well, incubate 10 minutes at room temperature. The YAP(50-100) peptide sequence used here is named SEQ ID NO: 2
The Europium-labeled anti-6×His antibody and APC labeled streptavidin were diluted according to the instructions, this detection solution was mixed 1:1 with reaction solution, incubated 1 hour at room temperature.
TR-FRET measurements were made on an Envision (Perkin Elmer), using an excitation wavelength of 320 nm and emissions read at 620 nm and 665 nm. The ratio of the 665 nm to the 620 nm multiply 10000 provides a normalized TR-FRET signal that represents the extent of binding.
Half inhibition concentration IC50 value was calculated by XLfit software.
For orientation: In TR-FRET formats the signal depends on donor and acceptor labels being close together.

Assay [2] has as its system MSTO-211H cells. In words: Proliferation Assay (CellTiter-Glo Luminescent Cell Viability Assay). In kind it is cell-based. The note with it: Homo sapiens, 96 hours treatment. As for the experimental part:
Example 5: Proliferation Assay
The effect of compound on YAP driven cancer cells proliferation was assessed in MSTO-211H (ATCC, CRL-2081TM) or NCI-H2052 (ATCC, CRL-5915TM) cells using CellTiter-Glo Luminescent Cell Viability Assay (Promega, G7570).
Briefly, individual cell lines were seeded in 96-well cell culture plate at the density of 1,500 cells per well and cultured in RPMII1640 (Gibco-A10491-01)+10% FBS (Gibco-10099-141C)+1% Penicillin-Streptomycin (5,000 U/mL, Gibco-15070-063) overnight at 37° C. with 5% CO2 before adding the compounds.
Following incubation, serial dilutions of compounds dissolved in DMSO were added to each well (3-fold dilution with 9 concentration points). The final concentration of DMSO present in this assay is below 0.5% and make duplication for each compound treated well.
Following 96 hours treatment, compound mediated cell growth inhibition was measured using CellTiter-Go Luminescent Cell Viability Assay (Promega, G7570). […] CellTiter-Glo in each assay well, mix and incubate at room temperature for 10 min. Read signal using EnVision® Multilabel Plate Reader (Perkin Elmer).
For data analysis, cell proliferation inhibition was calculated using the following formula:
Inhibition %=(1−(Compound treated well CTG signal/DMSO well CTG signal))*100.
IC50 values were calculated using GraphPad Prism software using a four-parameter fit model.
In general terms: In ATP-based viability assays light output follows the ATP content of the culture.

On to `C[C@H](c1ccccn1)n1ccc(-c2nn(-c3ccc(C(F)(F)F)cc3)c3cccnc23)cc1=O` [Compound 3, (R)-1-(1-(pyridin-2-yl)ethyl)-4-(1-(4-(trifluoromethyl)phenyl)-1H-pyrazolo[4,3-b]pyridin-3-yl)pyridin-2(1H)-one], for which the IC50 in assay [1] was in the range of 100 to 1000 nM; in assay [2], 1000 to 10000 nM.
Turning to `C[C@@H](c1ccccn1)n1ccc(-c2nn(-c3ccc(F)cc3)c3cccnc23)cc1=O` [Compound 4, (S)-4-(1-(4-fluorophenyl)-1H-pyrazolo[4,3-b]pyridin-3-yl)-1-(1-(pyridin-2-yl)ethyl)pyridin-2(1H)-one], the IC50 was 100 to 1000 nM in assay [1] and 1000 to 10000 nM in assay [2].
As to `C[C@@H](c1ccccn1)n1ccc(-c2nn(-c3ccc(Cl)cc3)c3cccnc23)cc1=O` [Compound 5, (S)-4-(1-(4-chlorophenyl)-1H-pyrazolo[4,3-b]pyridin-3-yl)-1-(1-(pyridin-2-yl)ethyl)pyridin-2(1H)-one], the figures for the IC50 in assay [1] and in assay [2] were no more than 100 nM and 1000 to 10000 nM, respectively.
The corresponding values for `C[C@@H](c1ccccn1)n1ccc(-c2nn(-c3cccc(C(F)(F)F)c3)c3cccnc23)cc1=O` [Compound 6, (S)-1-(1-(pyridin-2-yl)ethyl)-4-(1-(3-(trifluoromethyl)phenyl)-1H-pyrazolo[4,3-b]pyridin-3-yl)pyridin-2(1H)-one] are 100 to 1000 nM and 1000 to 10000 nM.
In the same order, the values of `CCC(c1ccccn1)n1ccc(-c2nn(-c3ccc(C(F)(F)F)cc3)c3cccnc23)cc1=O` (stereo not drawn) [Compound 7, 1-(1-(pyridin-2-yl)propyl)-4-(1-(4-(trifluoromethyl)phenyl)-1H-pyrazolo[4,3-b]pyridin-3-yl)pyridin-2(1H)-one] are no more than 100 nM and 1000 to 10000 nM.
In the same order, the values of `CC(C)n1ccc(-c2nn(-c3ccc(C(F)(F)F)cc3)c3cccnc23)cc1=O` [Compound 8, 1-isopropyl-4-(1-(4-(trifluoromethyl)phenyl)-1H-pyrazolo[4,3-b]pyridin-3-yl)pyridin-2(1H)-one] are 100 to 1000 nM and no more than 1000 nM.
For `C[C@@H](c1ccccn1)n1ccc(-n2nc(-c3ccc(C(F)(F)F)cc3)c3ncccc32)cc1=O` [Compound 9, (S)-1-(1-(pyridin-2-yl)ethyl)-4-(3-(4-(trifluoromethyl)phenyl)-1H-pyrazolo[4,3-b]pyridin-1-yl)pyridin-2(1H)-one], the figures for the IC50 in assay [1] and in assay [2] were no more than 100 nM and no more than 1000 nM, respectively.
For `C[C@@H](c1ccccn1)n1ccc(-c2nn(-c3ccc(C(F)(F)F)cc3)c3ccccc23)cc1=O` [Compound 11, (S)-1-(1-(pyridin-2-yl)ethyl)-4-(1-(4-(trifluoromethyl)phenyl)-1H-indazol-3-yl)pyridin-2(1H)-one], the IC50 in assay [1] was no more than 100 nM; in assay [2] it was no more than 1000 nM.
The corresponding values for `O=c1cc(-c2nn(-c3ccc(C(F)(F)F)cc3)c3ccccc23)ccn1Cc1ccccn1` [Compound 12, 1-(pyridin-2-ylmethyl)-4-(1-(4-(trifluoromethyl)phenyl)-1H-indazol-3-yl)pyridin-2 (1H)-one] are no more than 100 nM and 1000 to 10000 nM.
`C[C@@H](c1cccnc1)n1ccc(-c2nn(-c3ccc(C(F)(F)F)cc3)c3ccccc23)cc1=O` [Compound 13, (S)-1-(1-(pyridin-3-yl)ethyl)-4-(1-(4-(trifluoromethyl)phenyl)-1H-indazol-3-yl)pyridin-2(1H)-one]: the values for the IC50 in assay [1] and in assay [2] were no more than 100 nM and no more than 1000 nM, respectively.
Regarding `C[C@@H](c1ccncc1)n1ccc(-c2nn(-c3ccc(C(F)(F)F)cc3)c3ccccc23)cc1=O` [Compound 14, (S)-1-(1-(pyridin-4-yl)ethyl)-4-(1-(4-(trifluoromethyl)phenyl)-1H-indazol-3-yl)pyridin-2(1H)-one], the IC50 in assay [1] is no more than 100 nM; in assay [2] it was no more than 1000 nM.
In the same order, the values of `O=c1cc(-c2nn(-c3ccc(C(F)(F)F)cc3)c3ccccc23)ccn1Cc1ncccn1` [Compound 15, 1-(pyrimidin-2-ylmethyl)-4-(1-(4-(trifluoromethyl)phenyl)-1H-indazol-3-yl)pyridin-2(1H)-one] are no more than 100 nM and no more than 1000 nM.
In the same order, the values of `Cc1cc(Cn2ccc(-c3nn(-c4ccc(C(F)(F)F)cc4)c4ccccc34)cc2=O)n(C)n1` [Compound 16, 1-((1,3-dimethyl-1H-pyrazol-5-yl)methyl)-4-(1-(4-(trifluoromethyl)phenyl)-1H-indazol-3-yl)pyridin-2(1H)-one] are 100 to 1000 nM and no more than 1000 nM.
The corresponding values for `Nc1ccnc(Cn2ccc(-c3nn(-c4ccc(C(F)(F)F)cc4)c4ccccc34)cc2=O)n1` [Compound 17, 1-((4-aminopyrimidin-2-yl)methyl)-4-(1-(4-(trifluoromethyl)phenyl)-1H-indazol-3-yl)pyridin-2(1H)-one] are no more than 100 nM and no more than 1000 nM.
In the case of `O=c1cc(-c2nn(-c3ccc(C(F)(F)F)cc3)c3ccccc23)ccn1Cc1cccnc1` [Compound 18, 1-(pyridin-3-ylmethyl)-4-(1-(4-(trifluoromethyl)phenyl)-1H-indazol-3-yl)pyridin-2(1H)-one], the IC50 was no more than 100 nM in assay [1] and no more than 1000 nM in assay [2].
With `O=c1cc(-c2nn(-c3ccc(C(F)(F)F)cc3)c3ccccc23)ccn1Cc1ccncc1` [Compound 19, 1-(pyridin-4-ylmethyl)-4-(1-(4-(trifluoromethyl)phenyl)-1H-indazol-3-yl)pyridin-2(1H)-one], the IC50 in assay [1] is no more than 100 nM; in assay [2], no more than 1000 nM.
As for `C[C@@H](c1ccccn1)n1ccc(-c2nn(-c3ccc(C(F)(F)F)cc3)c3ncccc23)cc1=O` [Compound 20, (S)-1-(1-(pyridin-2-yl)ethyl)-4-(1-(4-(trifluoromethyl)phenyl)-1H-pyrazolo[3,4-b]pyridin-3-yl)pyridin-2(1H)-one], the results for the IC50 in assay [1] and in assay [2] were no more than 100 nM and no more than 1000 nM, respectively.
The corresponding values for `C[C@@H](c1ccccn1)n1ccc(-c2nn(-c3ccc(C(F)(F)F)cc3)c3ccc(CO)cc23)cc1=O` [Compound 24] are no more than 100 nM and no more than 1000 nM.
In the case of `C[C@@H](c1ccccn1)n1ccc(-c2nn(-c3ccc(C(F)(F)F)cc3)c3cc(CO)ccc23)cc1=O` [Compound 28, (S)-4-(6-(hydroxymethyl)-1-(4-(trifluoromethyl)phenyl)-1H-indazol-3-yl)-1-(1-(pyridin-2-yl)ethyl)pyridin-2(1H)-one], the IC50 in assay [1] was no more than 100 nM; in assay [2], no more than 1000 nM.
As to `C[C@@H](c1ccccn1)n1ccc(-c2nn(-c3ccc(C(F)(F)F)cc3)c3cc(C(=O)O)ccc23)cc1=O` [Compound 29, (S)-3-(2-oxo-1-(1-(pyridin-2-yl)ethyl)-1,2-dihydropyridin-4-yl)-1-(4-(trifluoromethyl)phenyl)-1H-indazole-6-carboxylic acid], the figures for the IC50 in assay [1] and in assay [2] were greater than 1000 nM and no more than 1000 nM, respectively.
The corresponding values for `C[C@@H](c1ccccn1)n1ccc(-c2nn(-c3ccc(C(F)(F)F)cc3)c3cc(C(N)=O)ccc23)cc1=O` [Compound 30, (S)-3-(2-oxo-1-(1-(pyridin-2-yl)ethyl)-1,2-dihydropyridin-4-yl)-1-(4-(trifluoromethyl)phenyl)-1H-indazole-6-carboxamide] are greater than 1000 nM and no more than 1000 nM.
As for `C[C@@H](c1ccccn1)n1ccc(-c2nn(-c3ccc(C(F)(F)F)cc3)c3cc(C#N)ccc23)cc1=O` [Compound 31, (S)-3-(2-oxo-1-(1-(pyridin-2-yl)ethyl)-1,2-dihydropyridin-4-yl)-1-(4-(trifluoromethyl)phenyl)-1H-indazole-6-carbonitrile], the values for the IC50 in assay [1] and in assay [2] were greater than 1000 nM and no more than 1000 nM, respectively.
Turning to `C[C@@H](c1ccccn1)n1ccc(-c2nn(-c3ccc(C(F)(F)F)cc3)c3ccc(F)cc23)cc1=O` [Compound 33, (S)-4-(5-fluoro-1-(4-(trifluoromethyl)phenyl)-1H-indazol-3-yl)-1-(1-(pyridin-2-yl)ethyl)pyridin-2(1H)-one], the results for the IC50 in assay [1] and in assay [2] were no more than 100 nM and no more than 1000 nM, respectively.
Regarding `COc1ccc2c(c1)c(-c1ccn([C@@H](C)c3ccccn3)c(=O)c1)nn2-c1ccc(C(F)(F)F)cc1` [Compound 34, (S)-4-(5-methoxy-1-(4-(trifluoromethyl)phenyl)-1H-indazol-3-yl)-1-(1-(pyridin-2-yl)ethyl)pyridin-2(1H)-one], the IC50 in assay [1] was no more than 100 nM; in assay [2], no more than 1000 nM.

The term IC50 denotes the point on the concentration scale where inhibition reaches its midpoint.
